Assay results as given in patent publication US20210290788A1, “RADIOIMMUNOCONJUGATES AND DNA DAMAGE AND REPAIR INHIBITOR COMBINATION THERAPY” (Fusion Pharmaceuticals Inc., priority 2018, published 2021).

What was measured:
[1] = tested on: A549 (NSCLC) xenograft model; test: Example 3 in vivo efficacy of olaparib as single agent, A549 xenograft
Description: (§1) An in vivo efficacy study was conducted with olaparib alone as a single agent. Olaparib was given as a single agent at different doses in a Colo-205 (colorectal cancer) xenograft model and in an A549 (NSCLC) xenograft model. Groups of animals (n=5) were dosed with olaparib (i.p.) 5 days on, 2 days off using 10-100 mg/kg doses.

[2] = tested on: A549 (NSCLC) xenograft model; test: Example 4 in vivo synergy study, olaparib dosing schedule 1, A549 xenograft; details: [225Ac]-FPI-1434 200 nCi, olaparib 50 mg/kg i.p. 5 days on, 2 days off for 28 days, pre-dosed 3 times prior to FPI-1434, up to 28 days
Description: (§2) Combination groups (n=5) were dosed with olaparib (i.p.) 5 days on, 2 days off, using a 50 mg/kg dose for 28 days. Animals were pre-dosed with olaparib 3 times prior to the [^225Ac]-FPI-1434 administration.

y-H2AX foci = test: Example 3 immunohistochemical analysis of y-H2AX foci; assay type: in vivo; details: after olaparib treatment; Colo-205 and A549 xenograft study
Description: as §1

[3] = tested on: Colo-205 (colorectal cancer) xenograft model; test: Example 4 in vivo synergy study, olaparib dosing schedule 1, Colo-205 xenograft; details: [225Ac]-FPI-1434 50 nCi, olaparib 50 mg/kg i.p. 5 days on, 2 days off for 28 days, pre-dosed 3 times prior to FPI-1434, up to 28 days
Description: as §2
(§3) Relative tumor volume was evaluated up to 28 days after administration.

[4] = tested on: Colo-205 (colorectal cancer) xenograft model; test: Example 3 in vivo efficacy of olaparib as single agent, Colo-205 xenograft
Description: as §1

[5] = tested on: Colo-205 (colorectal cancer) xenograft model; test: Example 6 in vivo combination study at multiple dose levels, Colo-205 xenograft; details: lower effective doses: [225Ac]-FPI-1434 20 nCi, olaparib 25 mg/kg i.p. 5 days on, 2 days off from 24 hours after FPI-1434 until day 30
Description: An in vivo study was conducted with [^225Ac]-FPI-1434 and olaparib in a Colo-205 (colorectal cancer) xenograft model, with [^225Ac]-FPI-1434 administered at a dose of 20 nCi, 50 nCi, or 100 nCi. In combination groups (n=5), animals were dosed with olaparib (i.p.) starting at 24 hours after [^225Ac]-FPI-1434 administration according to a 5 days on, 2 days off schedule using 25 or 50 mg/kg doses until day 30 after [^225Ac]-FPI-1434 administration (“day 0”).
Relative tumor volume was evaluated at various time points after administration. […] FIG. 13A-13C show results using 20 nCi (FIG. 13A), 50 nCi (FIG. 13B), or 100 nCi (FIG. 13C) [^225Ac]-FPI-1434 with olaparib (25 mg/kg or 50 mg/kg).

[6] = tested on: Colo-205 (colorectal cancer) xenograft model; test: Example 5 in vivo synergy study, olaparib dosing schedule 2, Colo-205 xenograft; details: FPI-1434 50 nCi, olaparib 50 mg/kg i.p. 5 days on, 2 days off for 28 days, first dose 24 hours after FPI-1434, up to 28 days
Description: Combination groups (n=5) were dosed with olaparib (i.p.) 5 days on, 2 days off, using a 50 mg/kg dose for 28 days. The first dose of olaparib was administered 24 hours following FPI-1434 administration.
as §3

[7] = olaparib i.p. 5 days on, 2 days off, 10-100 mg/kg

## O=C(c1cc(Cc2n[nH]c(=O)c3ccccc23)ccc1F)N1CCN(C(=O)C2CC2)CC1 [olaparib]
[1]; olaparib 10-100 mg/kg doses
  Dose response of tumor volume effect: did not appear to be a dose response
[1]; [7]
  Relative tumor volume (efficacy as a single agent): modest efficacy as a single agent
[2]
  Relative tumor volume: no apparent difference in tumor volume over time
y-H2AX foci
  DSB formation (y-H2AX foci, immunohistochemical analysis): no increase in DSB formation
[3]
  Relative tumor volume: some reduction in tumor volume over time
[4]; olaparib 10-100 mg/kg doses
  Dose response of tumor volume effect: did not appear to be a dose response
[4]; [7]
  Relative tumor volume (efficacy as a single agent): modest efficacy as a single agent
[5]
  Relative tumor volume: no or limited therapeutic effect
[6]
  Relative tumor volume: significant reduction in tumor volume overtime
